Laboratory results reported in patent US12459930B2, “Compounds for the inhibition of unregulated cell growth” (GODAVARI BIOREFINERIES LIMITED, priority 2018, dated 2025).

Tests used:
[1] = system: PC3 prostate cancer cell line; experiment: In vitro antiproliferative assay (MTT assay), PC3; format: cell-based; conditions: 48 h, 48 hrs drug incubation, read-out: IC50 in micromolar, PC3 (MTT assay)
Description: (§1) MTT assay is a simple and sensitive assay where, metabolic reducing activity of the cells is measured. The increase of this activity in time is taken as a parameter of cell growth. If treatment with a drug impairs this increase, the action is a consequence of growth inhibition, cell killing or both. […] All cell lines were cultured in a 37° C. incubator with a 5% CO2 environment. Compounds were dissolved in DMSO with a concentration of 0.1M (stock solution). Cells were seeded into 96-well plates at suitable plating efficiency.
(§2) Following plating efficiencies were standardized for MTT assay:
(§3) In the MTT procedure, the cells were plated in 96 well plates as per predetermined plating efficiency (Table1). The plates were then incubated for 24 hrs in 5% CO2 atmosphere at 37° C. Appropriate concentrations of the drugs were then added to the plate and further incubation was carried out for 48 hrs (in 5% CO2 atmosphere at 37° C.). The assay plate was then centrifuged twice at 3000 rpm for 3 mins and supernatant was then discarded. 100 ul of MTT solution (0.5 mg/ml) was then added to each well of the plate and it was further incubated for 4 hrs (in 5% CO2 atmosphere at 37° C.) Following 4 hr incubation, the plate was then centrifuged twice, and supernatant was aspirated off very carefully. 200 ul of DMSO was then added to each well to solubilize. MTT crystals and mixed well by shaking the plate. XY graph of log percent viability was then plotted against log drug concentration.

[2] = system: MDAMB231 spheres (cancer stem cells); experiment: In vitro sphere-forming assay (cancer stem cells), MDAMB231 in Mammosphere media; conditions: for 3D sphere count of MDAMB231 in Mammosphere media: 2000 cells/well, n = 6 ± S.D; for viability at 0.0025 µM / viability at 0.025 µM / viability at 0.25 µM / viability at 2.5 µM / viability at 25 µM: Homo sapiens, MDA-MB-231, read-out: % Viability of spheres (MDAMB231)
Description: In Vitro Sphere-forming Assay: Sphere assay measures the ability of cancer stem cells (CSCs) to form spheres in specially designed serum-free medium.
Mammosphere Media Preparation (For 100 mL): 1 g methyl cellulose autoclaved with magnetic stirrer, 100 ml plain media (MEBM) was added and dissolved under magnetic stirring. After complete dissolution FGF—80 μL, EGF—40 μL, Penstrep—1 mL, Heparin—400 μL was added.
Procedure—The cells were trypsinised and made into single-cell suspension by passing through cell strainers (100 μl and 40 μl, respectively), The cells were diluted at a concentration of 2000 cells/100 μL and suspended in either Mammosphere (for breast cell lines) or Prostosphere (for prostate cell lines). 100 μL of this suspension was added into each well of 96-well suspension plates and incubated at 37 C, 50 CO2 for 24 hrs. Appropriate concentrations of the drugs (2 L) were added into respective wells with 100 μL of stem cell culture medium. Plates were incubated at 37° C., 50% CO2 for 72 hrs. After incubation, 2.5 μL of the respective drug concentration and 50 μL of stem cell culture medium were added into each well and the plates were further incubated at 37° C., 500 CO2 for 72 hrs. 3 μL of the respective drug concentration was added with 50 μL of stem cell culture medium again after incubation and plates were reincubated for 72 hrs at 37° C., 500 CO2. Number of primary spheres formed for each concentration were counted. The spheres were converted to 0 viability of spheres compared to untreated (Growth Control with DMSO, GCD).

[3] = system: DU145 prostate cancer cell line; experiment: In vitro antiproliferative assay (MTT assay), DU145; format: cell-based; conditions: Homo sapiens, DU-145, 48 h, 48 hrs drug incubation, read-out: IC50 in micromolar, DU145 (MTT assay)
Description: as §1, §2, §3

[4] = system: PC3 prostate cancer cell line; experiment: Soft agar colony-formation assay, PC3; format: cell-based; conditions: 168 h, 1 week, Alamar Blue, read-out: IC50 in micromolar, PC3 (Soft Agar Assay)
Description: (§4) The Soft Agar Colony-formation Assay is an anchorage-independent growth assay in soft agar, which is one of the most stringent assays for detecting malignant transformation of cells. For this assay, malignant cells are cultured with appropriate controls in soft agar medium for 1-2 weeks. Following this incubation period, formed colonies can either be analyzed morphologically using cell stain and quantifying the number of colonies formed.
(§5) Briefly, for Soft Agar Assay a mixture of 50 ul of 2× medium (taken appropriately as per cell line) and 50 ul of 1.2% Bacto Agar were plated on to each well of 96 well micro titer assay plate. 10 ul of cells (of specific plating efficiency pre standardized for respective cell line) were mixed with 20 ul of 2× medium and 30 ul of 0.8% of Bacto Agar and 1.6 ul of drug (of appropriate concentration) in a vial and transferred to the solidified pre layers of the assay plates. The cells were then allowed to grow and form colonies at 37° C. and 5% C02 for 1 week. An intermittent feeding with 50 ul of appropriate 2× medium was performed after 3 days of experimental set up. 16 ul of Alamar Blue (1.5 mg/ml) was then added to all the wells to quantify the developed colonies. The plates were incubated for 24 hrs at 37° C. Absorbance was then measured at 630 nm. XY graph of log Percent viability was then plotted against log drug concentration.
(§6) Following plating efficiencies were standardized for Soft Agar Assay: […]

[5] = system: PC3 spheres (cancer stem cells); experiment: In vitro sphere-forming assay (cancer stem cells), PC3 in Prostosphere media; conditions: for 3D sphere count of PC3 in Prostosphere media: 2000 cells/well, n = 6 ± S.D; for viability at 0.0025 µM: read-out: % Viability of spheres (PC3), 0.0025 uM; for viability at 0.0025 µM / viability at 0.025 µM / viability at 0.25 µM / viability at 2.5 µM / viability at 25 µM: GCD = 100% viability; for viability at 0.025 µM: read-out: % Viability of spheres (PC3), 0.025 uM; for viability at 0.25 µM: read-out: % Viability of spheres (PC3), 0.25 uM; for viability at 2.5 µM: read-out: % Viability of spheres (PC3), 2.5 uM; for viability at 25 µM: read-out: % Viability of spheres (PC3), 25 uM
[6] = system: MDAMB231 breast cancer cell line; experiment: In vitro antiproliferative assay (MTT assay), MDAMB231; format: cell-based; conditions: Homo sapiens, MDA-MB-231, 48 h, 48 hrs drug incubation, read-out: IC50 in micromolar, MDAMB231 (MTT assay)
Description: as §1, §2, §3

[7] = system: MDAMB231 breast cancer cell line; experiment: Soft agar colony-formation assay, MDAMB231; format: cell-based; conditions: Homo sapiens, MDA-MB-231, 168 h, 1 week, Alamar Blue, read-out: IC50 in micromolar, MDAMB231 (Soft Agar Assay)
Description: as §4, §5, §6

c1ccc2c(-c3ccc4c(c3)OCO4)ccc(OCCCCN3CCOCC3)c2c1 [Formula VIII, 4-(4-(1-(benzo[d][1,3]dioxol-5-yl)naphthalen-4-yloxy)butyl)morpholine]
IC50 [1]: 1.77 µM | 3D sphere count of MDAMB231 in Mammosphere media ([2]; 0.0025 uM): 54(±3) | 3D sphere count of MDAMB231 in Mammosphere media ([2]; 0.025 uM): 49(±4) | 3D sphere count of MDAMB231 in Mammosphere media ([2]; 0.25 uM): 39(±2) | 3D sphere count of MDAMB231 in Mammosphere media ([2]; 2.5 uM): 28(±3) | 3D sphere count of MDAMB231 in Mammosphere media ([2]; 25 uM): 19(±1) | viability at 0.0025 µM [2]: 76% | viability at 0.025 µM [2]: 69% | viability at 0.25 µM [2]: 55 ± 2% | viability at 2.5 µM [2]: 39% | viability at 25 µM [2]: 26% | IC50 [3]: 0.723 µM | IC50 [4]: 2.07 µM | 3D sphere count of PC3 in Prostosphere media ([5]; 0.0025 uM): 57(±2) | 3D sphere count of PC3 in Prostosphere media ([5]; 0.025 uM): 49(±3) | 3D sphere count of PC3 in Prostosphere media ([5]; 0.25 uM): 41(±2) | 3D sphere count of PC3 in Prostosphere media ([5]; 2.5 uM): 36(±2) | 3D sphere count of PC3 in Prostosphere media ([5]; 25 uM): 28(±3) | viability at 0.0025 µM [5]: 69% | viability at 0.025 µM [5]: 59% | viability at 0.25 µM [5]: 50% | viability at 2.5 µM [5]: 44% | viability at 25 µM [5]: 34% | IC50 [6]: 1.15 µM | IC50 [7]: 1.73 µM

c1ccc2c(-c3ccc4c(c3)OCO4)ccc(OCCN3CCOCC3)c2c1 [Formula X, 4-(2-(1-(benzo[d][1,3]dioxol-5-yl)naphthalen-4-yloxy)ethyl)morpholine]
IC50 [1]: 4 µM | 3D sphere count of MDAMB231 in Mammosphere media ([2]; 0.0025 uM): 57(±5) | 3D sphere count of MDAMB231 in Mammosphere media ([2]; 0.025 uM): 42(±4) | 3D sphere count of MDAMB231 in Mammosphere media ([2]; 0.25 uM): 34(±3) | 3D sphere count of MDAMB231 in Mammosphere media ([2]; 2.5 uM): 21(±3) | 3D sphere count of MDAMB231 in Mammosphere media ([2]; 25 uM): 7(±3) | viability at 0.0025 µM [2]: 69% | viability at 0.025 µM [2]: 51% | viability at 0.25 µM [2]: 41% | viability at 2.5 µM [2]: 25% | viability at 25 µM [2]: 8% | IC50 [3]: 5.96 µM | IC50 [4]: 10.3 µM | 3D sphere count of PC3 in Prostosphere media ([5]; 0.0025 uM): 74(±4) | 3D sphere count of PC3 in Prostosphere media ([5]; 0.025 uM): 61(±3) | 3D sphere count of PC3 in Prostosphere media ([5]; 0.25 uM): 53(±3) | 3D sphere count of PC3 in Prostosphere media ([5]; 2.5 uM): 42(±4) | 3D sphere count of PC3 in Prostosphere media ([5]; 25 uM): 28(±3) | viability at 0.0025 µM [5]: 87% | viability at 0.025 µM [5]: 72% | viability at 0.25 µM [5]: 62% | viability at 2.5 µM [5]: 49% | viability at 25 µM [5]: 33% | IC50 [6]: 5.36 µM | IC50 [7]: 4.18 µM

O=C1OCc2c1c(-c1ccc3c(c1)OCO3)c1cc3c(cc1c2OCCN1CCOCC1)OCO3 [Formula XI, 4-(2-morpholinoethoxy)-9-(benzo[d][1,3]dioxol-5-yl)-6,7-methylenedioxynaphtho[2,3-c]furan-1(3H)-one]
IC50 [1]: 12.6 µM | 3D sphere count of MDAMB231 in Mammosphere media ([2]; 0.0025 uM): 51(±3) | 3D sphere count of MDAMB231 in Mammosphere media ([2]; 0.025 uM): 41(±3) | 3D sphere count of MDAMB231 in Mammosphere media ([2]; 0.25 uM): 31(±3) | 3D sphere count of MDAMB231 in Mammosphere media ([2]; 2.5 uM): 20(±3) | 3D sphere count of MDAMB231 in Mammosphere media ([2]; 25 uM): 0(±0) | viability at 0.0025 µM [2]: 64% | viability at 0.025 µM [2]: 52% | viability at 0.25 µM [2]: 39% | viability at 2.5 µM [2]: 25% | viability at 25 µM [2]: 0% | IC50 [3]: 8.18 µM | IC50 [4]: 5.12 µM | 3D sphere count of PC3 in Prostosphere media ([5]; 0.0025 uM): 51(±3) | 3D sphere count of PC3 in Prostosphere media ([5]; 0.025 uM): 43(±3) | 3D sphere count of PC3 in Prostosphere media ([5]; 0.25 uM): 32(±4) | 3D sphere count of PC3 in Prostosphere media ([5]; 2.5 uM): 21(±3) | 3D sphere count of PC3 in Prostosphere media ([5]; 25 uM): 0(±0) | viability at 0.0025 µM [5]: 62% | viability at 0.025 µM [5]: 52% | viability at 0.25 µM [5]: 39% | viability at 2.5 µM [5]: 25% | viability at 25 µM [5]: 0% | IC50 [6]: 3.2 µM | IC50 [7]: 2.7 µM

COc1cccc(-c2ccc(OCCN3CCOCC3)c3ccccc23)c1 [Formula XII, 4-(2-(1-(3-methoxyphenyl)naphthalen-4-yloxy)ethyl)morpholine]
IC50 [1]: 3.98 µM | 3D sphere count of MDAMB231 in Mammosphere media ([2]; 0.0025 uM): 47(±4) | 3D sphere count of MDAMB231 in Mammosphere media ([2]; 0.025 uM): 41(±3) | 3D sphere count of MDAMB231 in Mammosphere media ([2]; 0.25 uM): 34(±3) | 3D sphere count of MDAMB231 in Mammosphere media ([2]; 2.5 uM): 30(±3) | 3D sphere count of MDAMB231 in Mammosphere media ([2]; 25 uM): 9(±3) | viability at 0.0025 µM [2]: 59% | viability at 0.025 µM [2]: 52% | viability at 0.25 µM [2]: 43% | viability at 2.5 µM [2]: 38% | viability at 25 µM [2]: 11% | IC50 [3]: 2.59 µM | IC50 [4]: 4.07 µM | 3D sphere count of PC3 in Prostosphere media ([5]; 0.0025 uM): 50(±3) | 3D sphere count of PC3 in Prostosphere media ([5]; 0.025 uM): 42(±3) | 3D sphere count of PC3 in Prostosphere media ([5]; 0.25 uM): 36(±3) | 3D sphere count of PC3 in Prostosphere media ([5]; 2.5 uM): 28(±3) | 3D sphere count of PC3 in Prostosphere media ([5]; 25 uM): 9(±3) | viability at 0.0025 µM [5]: 61% | viability at 0.025 µM [5]: 51% | viability at 0.25 µM [5]: 44% | viability at 2.5 µM [5]: 34% | viability at 25 µM [5]: 11% | IC50 [6]: 2.7 µM | IC50 [7]: 3.33 µM
